Source: patent US10570179B2, “Substituted urea depsipeptide analogs as activators of the CLPP endopeptidase” (priority 2016, dated 2020)
Numbered stars: 1 amine (or outer) side, 2 acyl side, 3 side chain; on linkers, the order of the positions; unused ones are H or OH. Bridge positions count the residues as written; N and C are the ends. Square brackets hold non-standard residues; d marks the D form. Peptide text beside a SMILES is read from it. * marks the point of attachment. Piperazine(2S-CO,4-Me) = CN1CCN[C@H](C(=O)O)C1; Phe(3,5-F2) = N[C@@H](Cc1cc(F)cc(F)c1)C(=O)O; Phe(3-Cl) = N[C@@H](Cc1cccc(Cl)c1)C(=O)O; Morpholine(3S-CO) = O=C(O)[C@@H]1COCCN1; Phe(3-Me) = Cc1cccc(C[C@H](N)C(=O)O)c1; X4 = O=C1CN([*:1])[C@H](C(=O)[*:2])CN1; NH(4-Cl-2-F-phenyl) = Fc1cc(Cl)ccc1N*; Pro(4R-Me) = C[C@H]1CN[C@H](C(=O)O)C1; X1 = O=C([C@@H]1CSCCN1[*:1])[*:2]; Hyp = O=C(O)[C@@H]1C[C@@H](O)CN1; NH(4-Et-phenyl) = CCc1ccc(N*)cc1; NH(4-Me-phenyl) = Cc1ccc(N*)cc1; aThr = C[C@H](O)[C@H](N)C(=O)O; Pip = O=C(O)[C@@H]1CCCCN1; CO = O=C([*:1])[*:2]

Legend:
Plasma stability assay = type: in vitro ADME, mouse
Protocol: The plasma stability property of early drug discovery compounds can influence the in vivo efficacy of the test compounds/drugs. Human and/or mouse plasma degradation is determined using multiple time points to monitor the rate of disappearance of the parent compound during incubation.
Sample preparation for plasma stability was modified from Di et al. (2005) Int. J. Pharm. 297(1-2): 110-119. A set of incubation times of 0, 3, 24, and 48 hour were used. DMSO stock solutions of test compounds were prepared at 10 mM concentration. 1.8 μL of each test compound was each added directly to 1.8 mL of human/mouse plasma to get the final concentration of 10 μM. This compound/matrix was mixed and 70 μL was transferred to 8 time points plates (each in triplicate wells). For the Time 0 plate, 210 μL of cold acetonitrile with internal standard (4 μg/mL warfarin) was added to each well and no incubation needed. For other seven time points' plate, the plate was incubated at 37° C. for required time, followed by quenching of the reaction by adding 210 μL of cold acetonitrile with internal standard (4 μg/ml warfarin) to each well. All of the plates were sealed and mixed well at 600 rpm for 10 min and were centrifuged at 4000 rpm for 20 min. The supernatants (120 μL) were transferred to analytical plates for analysis by LCMS. Conditions for Waters ACQUITY-UPLC-MS-UV system was described separately. The plasma stability was evaluated via the half-life from least-squares fit of the multiple time points based on first-order kinetics.

[1] = Microsomal metabolic stability; type: in vitro ADME, human
Protocol: Compounds were initially prepared by dissolving them into DMSO at a final concentration of 10 mM. NADPH regenerating solutions A and B and mouse liver microsomes (CD-1) were obtained from BD Gentest (Woburn, Mass.). Ninety-six well deep well plates were obtained from MidWest Scientific Inc (Valley Park, Mo.).
Sample preparation for microsomal stability was modified from methods of Di, L., et al., Int J Pharm. 2005 Jun. 13; 297(1-2):110-9. A set of incubation times of 0, 15, 30, 60, 120, and 240 minutes were used. Mouse liver microsomal solutions were prepared by adding 58 μL of concentrated human or mouse liver microsomes (20 mg/mL protein concentration) to 1.756 mL of 0.1 M potassium phosphate buffer (pH 7.4) and 5 μL of 0.5 M EDTA to make a 0.6381 mg/mL (protein) microsomal solution. NADPH regenerating agent contained 113 μL of NADPH A, 23 μL of NADPH B, and 315 μL of 0.1 M potassium phosphate buffer (pH 7.4). The diluted test compound solutions (2 μL) were each added directly to a 1.79 mL of liver microsomal solution. This solution was mixed and 90 μL was transferred to 6 time points plates (each in triplicate wells). For the time 0 plate, 225 μL of cold acetonitrile with internal standard ([…] warfarin) was added to each well, followed by addition of NADPH regenerating agent (22.5 μL) and no incubation. For other five time points' plate, NADPH regenerating agent (22.5 μL) was added to each well to initiate the reaction. The plates were incubated at 37° C. for the required time, followed by quenching of the reaction by adding 225 μL of cold acetonitrile with internal standard (4 μg/ml warfarin). All of the plates were sealed and mixed well at 600 rpm for 10 minutes followed by centrifugation at 4000 rpm for 20 minutes. The supernatants (120 μL) were transferred to analytical plates for analysis by LCMS. LCMS conditions were described in the materials and instrumentation section above. The metabolic stability is evaluated via the half-life from least-squares fit of the multiple time points based on first-order kinetics.

[2] = Plasma protein binding, rapid equilibrium dialysis; type: in vitro ADME, human; settings: 10 μM
Protocol: This assay determines plasma protein binding of a drug/compound and free drug concentration in plasma using rapid equilibrium dialysis, which allow the aqueous component of plasma containing the free drug/compound through a dialysis membrane (MWCO˜8,000).
Solutions were prepared at 10 mM in DMSO. Dulbecco's phosphate buffered saline (DPBS; pH 7.4) was obtained from Invitrogen (Carlsbad, Calif.). Single-Use RED (rapid equilibrium dialysis) device was obtained from Thermo scientific (Rockford, Ill.). Human plasma was obtained from Innovative Research INC (Novi, Michigan, Ill).
Sample preparation for plasma protein binding was modified from Waters' method. (Waters et al. (2008) J. Pharm. Sci. 97(10): 4586-95). The Teflon base plate with the RED inserts (MWCO 8 K) were allowed to use without any pre-condition the membrane inserts. Human plasma was thawed and centrifuged at 1000 rpm for 2 min to remove any particulates. Each compound was prepared at 10 μM in human plasma. This was done by adding 1 μL, of drug solution (10 mM in DMSO) to 1000 μL, of human plasma (0.1% DMSO). Spiked plasma solutions (300 μL) were placed into the sample chamber (indicated by the red ring) and 500 μL, of DPBS into the adjacent chamber. The plate was sealed and incubated at 37° C. on an orbital shaker (100 rpm) for 4 hours. After incubation, the seal was removed from the RED plate and the volume of the insert confirmed—little to no volume change occurred. Aliquots (50 μL) were removed from each side of the insert and dispensed into a 96-well deep plate. An equal volume of blank plasma or DPBS was added to the required wells to create analytically identical sample matrices (matrix matching). To each sample 200 μL, of ACN containing 4 μg/mL warfarin IS was added. All of the plates were sealed and mixed well at 600 rpm for 10 min and were centrifuged at 4000 rpm for 20 min. The supernatants (120 μL) were transferred to analytical plates for analysis by LCMS. Conditions for Waters ACQUITY-UPLC-MS-UV system were described separately. The test compound concentrations were quantified in both buffer and plasma chambers via peak areas relative to the internal standard. The percentage of the test compound bound to plasma was calculated on following equations: % Free=(Concentration buffer chamber/concentration plasma chamber)×100% and % Bound=100%-% Free.

[3] = plasma stability half-life, mouse plasma, 37° C.
[4] = microsomal metabolic stability half-life, human liver microsomes
[5] = plasma binding, % Bound, human plasma

Compound | Mouse (Plasma stability assay; mouse, 10 μM) [h] | Human ([1]; human, pH 7.4) | Human ([2]; human, 4 h, pH 7.4) [%] | Mouse (Plasma stability assay; [3]) [h] | Human [1, 4] | Human [2, 5] [%] | Mouse (hr) (Plasma stability assay; [3])
Cc1cccc(C[C@H](NC(=O)Nc2ccc(Cl)cc2F)C(=O)N[C@H]2COC(=O)[C@@H]3C[C@@H](C)CN3C(=O)[C@H](C)NC(=O)[C@@H]3CCCCN3C(=O)[C@@H]3C[C@H](N)CN3C2=O)c1 [Compound 12, (S)—N-((2R,6S,8AS,14AS,16S,20S,23AS)-16-AMINO-2,6-DIMETHYL-5,8,14,19,23-PENTAOXOOCTADECAHYDRO-1H,5H,14H,19H-PYRIDO[2,1-I]DIPYRROLO[2,1-C:2′,1′-L][1]OXA[4,7,10,13]TETRAAZACYCLOHEXADECIN-20-YL)-2-(3-(4-CHLORO-2-FLUOROPHENYL)UREIDO)-3-(M-TOLYL)PROPANAMIDE] | 18.63 | 3.34 ± 0.6 h | 99.9 ± 0.2 | – | – | – | –
Cc1ccc(NC(=O)N[C@@H](Cc2cccc(C)c2)C(=O)N[C@@H]2C(=O)N3C[C@H](O)C[C@H]3C(=O)N3CCN(C)C[C@H]3C(=O)N[C@@H](C)C(=O)N3C[C@H](C)C[C@H]3C(=O)O[C@H]2C)cc1 [Compound 30, (S)—N-((6AS,8R,12S,13S,15AS,17R,21S,23AS)-8-HYDROXY-2,13,17,21-TETRAMETHYL-6,11,15,20,23-PENTAOXOOCTADECAHYDRO-2H,6H,11H,15H-PYRAZINO[2,1-I]DIPYRROLO[2,1-C:2′,1′-L][1]OXA[4,7,10,13]TETRAAZACYCLOHEXADECIN-12-YL)-3-(M-TOLYL)-2-(3-(P-TOLYL)UREIDO)PROPANAMIDE] ({NH(4-Me-phenyl)-CO}-[Phe(3-Me)][aThr][Hyp][Piperazine(2S-CO,4-Me)]A[Pro(4R-Me)]; ester 2-C) | – | – | – | >50 | 1.30 ± .305 h | 94.8 ± 4.8 | –
C[C@@H]1C[C@H]2C(=O)O[C@@H](C)[C@H](NC(=O)[C@H](Cc3cccc(Cl)c3)NC(=O)Nc3ccc(Cl)cc3F)C(=O)N3CCC[C@H]3C(=O)N3CCN(C)C[C@H]3C(=O)N[C@@H](C)C(=O)N2C1 [Compound 33] ({NH(4-Cl-2-F-phenyl)-CO}-[Phe(3-Cl)][aThr]P[Piperazine(2S-CO,4-Me)]A[Pro(4R-Me)]; ester 2-C) | >50 | 9.25 ± .255 h | 99.1 ± 9.1 | – | – | – | –
Cc1cccc(C[C@H](NC(=O)Nc2ccc(Cl)cc2F)C(=O)N[C@@H]2C(=O)N3C[C@H](O)C[C@H]3C(=O)N3CCSC[C@H]3C(=O)N[C@@H](C)C(=O)N3C[C@H](C)C[C@H]3C(=O)O[C@H]2C)c1 [Compound 41, (S)-2-(3-(4-CHLORO-2-FLUOROPHENYL)UREIDO)-N-((6AS,8R,12S,13S,15AS,17R,21S,23AR)-8-HYDROXY-13,17,21-TRIMETHYL-6,11,15,20,23-PENTAOXOOCTADECAHYDRO-6H,11H,15H-DIPYRROLO[2,1-C:2′,1′-L][1,4]THIAZINO[3,4-I][1]OXA[4,7,10,13]TETRAAZACYCLOHEXADECIN-12-YL)-3-(M-TOLYL)PROPANAMIDE] ({NH(4-Cl-2-F-phenyl)-CO}-[Phe(3-Me)][aThr][Hyp][X1]A[Pro(4R-Me)]; ester 2-C) | >50 | 0.41 ± .413 h | 99.7 ± 9.7 | – | – | – | –
Cc1ccc(NC(=O)N[C@@H](Cc2cccc(C)c2)C(=O)N[C@@H]2C(=O)N3CCC[C@H]3C(=O)N3CCCC[C@H]3C(=O)N[C@@H](C)C(=O)N3C[C@H](C)C[C@H]3C(=O)O[C@H]2C)cc1 [Compound 1, (S)-3-(M-TOLYL)-2-(3-(P-TOLYL)UREIDO)-N-((2R,6S,8AS,14AS,20S,21S,23AS)-2,6,21-TRIMETHYL-5,8,14,19,23-PENTAOXOOCTADECAHYDRO-1H,5H,14H,19H-PYRIDO[2,1-I]DIPYRROLO[2,1-C:2′,1′-L][1]OXA[4,7,10,13]TETRAAZACYCLOHEXADECIN-20-YL)PROPANAMIDE] ({NH(4-Me-phenyl)-CO}-[Phe(3-Me)][aThr]P[Pip]A[Pro(4R-Me)]; ester 2-C) | – | – | – | – | 11.45 h | 98.5 | >>48 hr
Cc1cccc(C[C@H](NC(=O)Nc2ccc(Cl)cc2F)C(=O)N[C@@H]2C(=O)N3CCC[C@H]3C(=O)N3CC(=O)NC[C@H]3C(=O)N[C@@H](C)C(=O)N3C[C@H](C)C[C@H]3C(=O)O[C@H]2C)c1 [Compound 20, (S)-2-(3-(4-CHLORO-2-FLUOROPHENYL)UREIDO)-3-(M-TOLYL)-N-((6AS,12S,13S,15AS,17R,21S,23AS)-13,17,21-TRIMETHYL-3,6,11,15,20,23-HEXAOXOOCTADECAHYDRO-2H,6H,11H,15H-PYRAZINO[2,1-I]DIPYRROLO[2,1-C:2′,1′-L][1]OXA[4,7,10,13]TETRAAZACYCLOHEXADECIN-12-YL)PROPANAMIDE] ({NH(4-Cl-2-F-phenyl)-CO}-[Phe(3-Me)][aThr]P[X4]A[Pro(4R-Me)]; ester 2-C) | 13.2 | 1.30 ± 0.09 h | 97.5 ± 0.2 | – | – | – | –
C[C@@H]1C[C@H]2C(=O)OC[C@H](NC(=O)[C@H](Cc3cc(F)cc(F)c3)NC(=O)Nc3ccc(Cl)cc3F)C(=O)N3CCC[C@H]3C(=O)N3CCN(C)C[C@H]3C(=O)N[C@@H](C)C(=O)N2C1 [Compound 34] ({NH(4-Cl-2-F-phenyl)-CO}-[Phe(3,5-F2)]SP[Piperazine(2S-CO,4-Me)]A[Pro(4R-Me)]; ester 2-C) | 21.18 | 0.77 ± .775 h | 96.5 ± 6.5 | – | – | – | –
CCc1ccc(NC(=O)N[C@@H](Cc2cccc(C)c2)C(=O)N[C@@H]2C(=O)N3C[C@H](O)C[C@H]3C(=O)N3CCOC[C@H]3C(=O)N[C@@H](C)C(=O)N3C[C@H](C)C[C@H]3C(=O)O[C@H]2C)cc1 [Compound 24, (S)-2-(3-(4-ETHYLPHENYL)UREIDO)-N-((6AS,8R,12S,13S,15AS,17R,21S,23AS)-8-HYDROXY-13,17,21-TRIMETHYL-6,11,15,20,23-PENTAOXOOCTADECAHYDRO-6H,11H,15H-[1,4]OXAZINO[3,4-I]DIPYRROLO[2,1-C:2′,1′-L][1]OXA[4,7,10,13]TETRAAZACYCLOHEXADECIN-12-YL)-3-(M-TOLYL)PROPANAMIDE] ({NH(4-Et-phenyl)-CO}-[Phe(3-Me)][aThr][Hyp][Morpholine(3S-CO)]A[Pro(4R-Me)]; ester 2-C) | >50 | 4.89 ± 0.67 h | 97.7 ± 0.2 | – | – | – | –
